Results as given in article PMC12142043, “Cell-based high-content approach for SARS-CoV-2 neutralization identifies unique monoclonal antibodies and PI3K pathway inhibitors” (Frontiers in Cell and Developmental Biology, 2025).
Where a name gives a salt, the structure may show the parent alone. Read-outs that look alike come from different tables or passages of the source.

Test system: SARS-CoV-2 (USA-WA1/2020) in Calu-3 cells
Assay type: cell-based
[1] = high dose (10 µM), Calu-3, 48 h
[2] = low dose (100 nM), Calu-3, 48 h

Structure (SMILES)	dsRNA signal, AU High [1] [AU]	dsRNA signal, AU Low [2] [AU]	dsRNA signal, AU High	dsRNA signal, AU Low
CN(C[C@@H]1COCCO1)S(=O)(=O)Nc1ccc2ccc3ncc(-c4cnn(C)c4)cc3c(=O)c2c1 [MK-2461]	19211.6	2226.3	–	–
O=C(O)[C@]1(Cc2cccc(Nc3nccs3)n2)CC[C@@H](Oc2cccc(Cl)c2F)CC1 [MK-5108 (VX-689)]	3258.6	34308.8	–	–
COc1ccc(-c2cnc3c(-c4cccc5ncccc45)cnn3c2)cc1 [ML347]	0.0	58224.3	–	–
Cl.O=S(=O)(c1cccc2c(I)cccc12)N1CCCNCC1 [ML-7 hydrochloride]	19324.6	18346.9	–	–
COc1c(Cl)cc2c([nH]c3cnccc32)c1NC(=O)c1cccnc1C [MLN120B]	3021.2	0.0	–	–
O=C(O)c1ccc(Nc2ncc3c(n2)-c2ccc(Cl)cc2C(c2c(F)cccc2F)=NC3)cc1 [MLN8054]	4632.4	9929.7	–	–
COc1cc(Nc2ncc3c(n2)-c2ccc(Cl)cc2C(c2c(F)cccc2OC)=NC3)ccc1C(=O)O [MLN8237 (Alisertib)]	9976.5	32491.8	–	–
O=[N+]([O-])/C=C/c1ccc2c(c1)OCO2 [MNS]	1958.5	51870.8	–	–
CCc1ccc(C(=O)COc2ccc(CC3SC(=O)NC3=O)cc2)nc1 (stereo not drawn) [MSDC-0160]	16528.8	15455.5	–	–
Nc1ccc(O)c(C(=O)O)c1 [Mesalamine]	17187.6	2129.6	–	–
CN(C)C(=N)N=C(N)N [Metformin HCl]	10385.6	10840.1	–	–
Cc1cc(=O)[nH]c(=S)[nH]1 [Methylthiouracil]	61524.3	55636.1	–	–
CCCCCCCCCCCCCCCCOP(=O)([O-])OCC[N+](C)(C)C [Miltefosine]	27276.6	36330.6	–	–
O=C1c2c(O)ccc(O)c2C(=O)c2c(NCCNCCO)ccc(NCCNCCO)c21 [Mitoxantrone HCl]	48235.0	23848.1	–	–
COC(=O)c1c2c(c3ccccc3c1O)OC(C)(C)C=C2 [Mollugin]	394.8	5157.1	–	–
COc1cc(N2CCC(O)CC2)ccc1Nc1cc(Nc2ccccc2S(=O)(=O)C(C)C)c2cc[nH]c2n1 [Mps1-IN-1]	7290.6	34349.9	–	–
FC(F)(F)c1ccc(/C=C/c2nc(COc3ccc(CCCCn4ccnn4)cc3)co2)cc1 [Mubritinib (TAK 165)]	–	–	19342.6	48533.2
CC(=O)NCCc1c[nH]c2ccc(O)cc12 [N-Acetylserotonin]	219.3	53222.8	–	–
O=[N+]([O-])c1ccc(Sc2cccc[n+]2[O-])c2nonc12 [NSC228155]	18547.9	54998.4	–	–
CCN(CC)CCCC(C)Nc1nc(C)cc(Nc2ccc3nc(C)cc(N)c3c2)n1 (stereo not drawn) [NSC 23766]	10192.1	15408.3	–	–
Oc1cc(CNC(=S)/C=C/c2cc(O)c(O)c(Br)c2)cc(O)c1O [NT157]	7372.8	11852.6	–	–

Structure (SMILES)	dsRNA signal, AU High [1] [AU]	dsRNA signal, AU Low [2] [AU]	dsRNA signal, AU High	dsRNA signal, AU Low
O=C(Nc1nc2ccc(NC(=O)C34CC5CC(CC(C5)C3)C4)cc2s1)c1ccccc1 [NVP 231]	1973.6	14037.2	–	–
Nc1ncnc2c1c(-c1cccc(OCc3ccccc3)c1)cn2[C@H]1C[C@@H](CN2CCC2)C1 [NVP-AEW541]	1274.0	19640.6	–	–
Cl.Nc1cc(C(F)(F)F)c(-c2cc(N3CCOCC3)nc(N3CCOCC3)n2)cn1 [NVP-BKM120 Hydrochloride]	0.0	56514.5	–	–
Fc1cc(-c2cccc3ncc(-c4cnn(C5CCNCC5)c4)nc23)cc(F)c1CN1CCOCC1 [NVP-BSK805 2HCl]	1810.2	2038.5	–	–
Cn1cc(-c2ccc3ncc(Cc4ccc5ncccc5c4)n3n2)cn1 [NVP-BVU972]	9035.4	52705.1	–	–
CS(=O)(=O)N1CCC(NC(=O)c2[nH]ncc2NC(=O)c2c(Cl)cccc2Cl)CC1 [NVP-LCQ195]	6040.0	35350.1	–	–
CN1C(=O)C(Cc2c[nH]c3ccccc23)NC1=S (stereo not drawn) [Necrostatin-1]	12590.5	10276.4	–	–
CCOc1cc2ncc(C#N)c(Nc3ccc(OCc4ccccn4)c(Cl)c3)c2cc1NC(=O)/C=C/CN(C)C [Neratinib (HKI-272)]	1101.0	11881.7	–	–
Cc1cn(-c2cc(NC(=O)c3ccc(C)c(Nc4nccc(-c5cccnc5)n4)c3)cc(C(F)(F)F)c2)cn1.Cl.O [Nilotinib monohydrochloride monohydrate]	2759.7	14574.2	–	–
Cc1cn(-c2cc(NC(=O)c3ccc(C)c(Nc4nccc(-c5cccnc5)n4)c3)cc(C(F)(F)F)c2)cn1 [Nilotinib(AMN-107)]	28653.4	33622.0	–	–
Nc1nc(N)c(N=O)c(OCC2CCCCC2)n1 [Nu 6027]	2596.9	10731.2	–	–
NCC(=O)Nc1ccc(-n2nc(C(F)(F)F)cc2-c2ccc3c(ccc4ccccc43)c2)cc1 [OSU-03012 (AR-12)]	17565.3	17813.3	–	–
CC1(C)OC(=O)C=C[C@]2(C)[C@H]3CC[C@@]4(C)[C@H](c5ccoc5)OC(=O)[C@H]5O[C@]54[C@]3(C)C(=O)C[C@@H]12 [Obacunone]	22534.9	63087.7	–	–
C=C1C(=O)[C@]23[C@H](O)[C@H]1CC[C@H]2[C@@]12CO[C@]3(O)[C@@H](O)[C@@H]1C(C)(C)CC[C@@H]2O [Oridonin]	6061.2	25375.1	–	–
COC(=O)Nc1nc2ccc([S+]([O-])c3ccccc3)cc2[nH]1 (stereo not drawn) [Oxfendazole]	20012.9	47370.5	–	–
COc1cccc(-c2cc(=O)c3ccccc3o2)c1N [PD98059]	33353.3	27955.5	–	–
COc1cc2ncnc(Nc3cccc(Br)c3)c2cc1OC.Cl [PD153035 hydrochloride]	1669.4	28866.3	–	–
O=C(NOCC1CC1)c1ccc(F)c(F)c1Nc1ccc(I)cc1Cl [PD184352 (CI-1040)]	0.0	41067.4	–	–
O=C(NOCC(O)CO)c1cc(Br)c(F)c(F)c1Nc1ccc(I)cc1F (stereo not drawn) [PD318088]	9157.7	11553.5	–	–
O=C(NOC[C@H](O)CO)c1ccc(F)c(F)c1Nc1ccc(I)cc1F [PD0325901]	5022.8	48059.9	–	–
O=[N+]([O-])c1ccc(-c2nc(-c3ccncc3)c(-c3ccc(F)cc3)[nH]2)cc1 [PD 169316]	4123.0	13218.6	–	–
